Measurements as given in US7517902B2, “Substituted indazoles, compositions containing the same, and the preparation and use thereof” (Aventis Pharma S.A., priority 2004, dated 2009).
Where a name gives a salt, the structure may show the parent alone.

Experiments:
human Tie2 = biological target: T1, human Tie2 (Homo sapiens, UniProt Q02763); test: Tie2 assay of PLC phosphorylation (FlashPlate); assay type: biochemical; details: read-out: IC 50 TIE2
T1 construct: amino acids of the intracellular domain 776-1124; made in house

Aurora2 = biological target: T2, Aurora2 (Homo sapiens, UniProt O14965); test: Aurora2 enzyme assay, NuMA substrate phosphorylation (Flashplate); assay type: biochemical; details: read-out: IC 50 Aurora2
T2 construct: Aurora 2: whole recombinant protein comprising an N-terminal histidine tail; His tag (histidine tail) (N); made in house; host or cells: E. coli
T2 sequence (O14965 1-403): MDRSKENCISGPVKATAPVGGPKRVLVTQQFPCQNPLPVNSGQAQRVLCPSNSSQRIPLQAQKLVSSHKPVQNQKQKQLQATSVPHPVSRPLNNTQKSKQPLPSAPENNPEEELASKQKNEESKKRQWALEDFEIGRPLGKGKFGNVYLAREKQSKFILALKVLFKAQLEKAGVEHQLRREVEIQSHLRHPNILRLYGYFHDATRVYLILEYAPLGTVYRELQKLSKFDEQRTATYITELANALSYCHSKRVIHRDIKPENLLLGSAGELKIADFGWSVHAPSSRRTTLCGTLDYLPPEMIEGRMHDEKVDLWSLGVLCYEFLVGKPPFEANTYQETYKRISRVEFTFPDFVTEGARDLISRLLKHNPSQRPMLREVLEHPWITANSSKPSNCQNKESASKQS
Method in brief: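 Recombinant full-length N-His Aurora2 (E. coli), 10 nM, phosphorylates 500 nM His-NuMA fragment with 1 µM ATP plus [33P]ATP in Tris/HCl pH 7.5, NaCl, MgCl2, DTT, 37 °C, 30 min, on Ni-chelate Flashplates. Incorporated 33P counted by scintillation; percent inhibition versus enzyme control after background subtraction.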

T1 sequence (Q02763 776-1124): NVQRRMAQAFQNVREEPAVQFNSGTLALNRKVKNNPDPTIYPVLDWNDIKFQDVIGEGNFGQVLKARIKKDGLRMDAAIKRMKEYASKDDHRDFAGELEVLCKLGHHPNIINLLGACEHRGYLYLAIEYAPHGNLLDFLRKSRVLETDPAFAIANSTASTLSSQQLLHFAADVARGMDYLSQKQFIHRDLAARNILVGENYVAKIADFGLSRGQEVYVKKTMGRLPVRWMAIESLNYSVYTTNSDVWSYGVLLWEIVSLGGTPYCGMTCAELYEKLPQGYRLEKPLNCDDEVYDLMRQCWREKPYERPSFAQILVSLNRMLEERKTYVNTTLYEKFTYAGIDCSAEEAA

IC50 (human Tie2) [nM]	IC50 (Aurora2) [nM]	SMILES
15	200	Nc1n[nH]c2cc(-c3ccc(NS(=O)(=O)c4cccc(Cl)c4Cl)cc3)ccc12 [Example 2, 1-[4-(3-Amino-1H-indazol-6-yl)phenyl]-2,3-dichlorobenzenesulfonamide hydrochloride]
4	133	O=C(Nc1n[nH]c2cc(-c3ccc(NS(=O)(=O)c4cccc(Cl)c4Cl)cc3)ccc12)c1ccsc1 [Example 3, 3-Thiophenecarboxylic acid {6-[4-(2,3dichlorobenzenesulfonylamino)phenyl]-1H-indazol-3-yl}amide]
2	37	O=C(Nc1n[nH]c2c(F)c(-c3ccc(NS(=O)(=O)c4cccc(Cl)c4Cl)cc3)ccc12)c1ccsc1 [Example 5, 3-Thiophenecarboxylic acid {6-[4-(2,3-dichlorobenzenesulfonylamino)-7-fluorophenyl]-1H-indazol-3-yl}amide]
10	87	Nc1n[nH]c2c(F)c(-c3ccc(NS(=O)(=O)c4cccc(Cl)c4Cl)cc3)ccc12 [Example 8, 1-[4-(3-Amino-1H-indazol-6-yl)-7-fluorophenyl]-2,3-dichlorobenzenesulfonamide hydrochloride]
